Results taken from the kinase profiling compilation of Christmann-Franck et al. (2016).

Tests used:
Test in all cases: KINOMEscan competition binding
Settings in all cases: compound 10.0 µM
RAF1 (human) = RAF1 (human) (UniProt P04049)
NLK (human) = NLK (human) (UniProt Q9UBE8)
TNNI3K (human) = TNNI3K (human) (UniProt Q59H18)
TSSK1B (human) = TSSK1B (human) (UniProt Q9BXA7)
EPHB4 (human) = EPHB4 (human) (UniProt P54760)
CHUK (human) = CHUK (human) (UniProt O15111)
CDC42BPG (human) = CDC42BPG (human) (UniProt Q6DT37)
PRKD2 (human) = PRKD2 (human) (UniProt Q9BZL6)
PRKCQ (human) = PRKCQ (human) (UniProt Q04759)
TESK1 (human) = TESK1 (human) (UniProt Q15569)
TTK (human) = TTK (human) (UniProt P33981)
RPS6KA1 KD1 (human) = RPS6KA1 KD1 (human) (UniProt Q15418)
PRKCD (human) = PRKCD (human) (UniProt Q05655)
PRKG2 (human) = PRKG2 (human) (UniProt Q13237)
Chain of PRKG2 (human) (Q13237 whole entry, looked up): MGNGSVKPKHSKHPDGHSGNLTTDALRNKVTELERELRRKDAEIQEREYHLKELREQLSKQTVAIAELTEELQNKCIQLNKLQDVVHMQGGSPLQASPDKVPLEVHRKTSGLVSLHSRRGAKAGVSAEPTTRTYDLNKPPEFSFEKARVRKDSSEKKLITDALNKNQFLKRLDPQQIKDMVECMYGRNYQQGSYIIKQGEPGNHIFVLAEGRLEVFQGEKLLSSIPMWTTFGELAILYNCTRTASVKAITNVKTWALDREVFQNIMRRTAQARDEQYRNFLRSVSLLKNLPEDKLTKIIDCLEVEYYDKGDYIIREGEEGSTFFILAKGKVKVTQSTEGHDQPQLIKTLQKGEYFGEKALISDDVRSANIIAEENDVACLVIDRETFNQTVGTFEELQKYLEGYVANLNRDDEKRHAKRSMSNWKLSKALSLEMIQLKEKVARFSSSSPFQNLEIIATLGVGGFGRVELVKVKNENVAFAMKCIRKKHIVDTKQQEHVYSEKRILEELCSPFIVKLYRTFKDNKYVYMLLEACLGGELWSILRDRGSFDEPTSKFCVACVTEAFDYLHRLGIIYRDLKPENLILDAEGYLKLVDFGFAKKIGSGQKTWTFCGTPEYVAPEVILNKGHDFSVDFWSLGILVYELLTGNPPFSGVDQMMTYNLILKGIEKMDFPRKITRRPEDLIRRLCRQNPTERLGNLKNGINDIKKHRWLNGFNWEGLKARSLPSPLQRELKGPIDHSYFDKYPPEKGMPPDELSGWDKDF

TLK1 (human) = TLK1 (human) (UniProt Q9UKI8)
Chain of TLK1 (human) (Q9UKI8 whole entry, looked up): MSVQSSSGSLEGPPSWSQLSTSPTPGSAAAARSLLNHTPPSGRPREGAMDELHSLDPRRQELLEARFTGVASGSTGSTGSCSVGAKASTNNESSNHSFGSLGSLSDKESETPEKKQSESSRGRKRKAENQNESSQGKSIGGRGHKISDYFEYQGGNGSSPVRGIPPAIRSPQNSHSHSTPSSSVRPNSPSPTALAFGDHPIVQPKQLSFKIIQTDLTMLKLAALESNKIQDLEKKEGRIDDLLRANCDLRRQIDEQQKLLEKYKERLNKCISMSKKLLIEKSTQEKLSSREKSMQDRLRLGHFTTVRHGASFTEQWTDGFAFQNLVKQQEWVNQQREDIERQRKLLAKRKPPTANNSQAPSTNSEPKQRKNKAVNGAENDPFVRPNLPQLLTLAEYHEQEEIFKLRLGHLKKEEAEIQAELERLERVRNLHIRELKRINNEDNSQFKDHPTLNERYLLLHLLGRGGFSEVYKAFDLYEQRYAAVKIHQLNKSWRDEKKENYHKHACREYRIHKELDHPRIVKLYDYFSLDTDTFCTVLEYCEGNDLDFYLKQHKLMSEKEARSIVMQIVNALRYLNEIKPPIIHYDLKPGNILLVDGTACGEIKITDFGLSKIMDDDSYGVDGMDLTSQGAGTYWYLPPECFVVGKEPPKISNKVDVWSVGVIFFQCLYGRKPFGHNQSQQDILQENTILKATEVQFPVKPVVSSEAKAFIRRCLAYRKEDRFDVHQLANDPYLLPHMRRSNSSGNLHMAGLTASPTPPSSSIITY

CAMKK1 (human) = CAMKK1 (human) (UniProt Q8N5S9)
[1] = test system: KIT (human), P10721 [V559D]
TAOK3 (human) = TAOK3 (human) (UniProt Q9H2K8)
EPHA3 (human) = EPHA3 (human) (UniProt P29320)
PRKAA1 (human) = PRKAA1 (human) (UniProt Q13131)
PHKG1 (human) = PHKG1 (human) (UniProt Q16816)
CSNK2A2 (human) = CSNK2A2 (human) (UniProt P19784)
Chain of CSNK2A2 (human) (P19784 whole entry, looked up): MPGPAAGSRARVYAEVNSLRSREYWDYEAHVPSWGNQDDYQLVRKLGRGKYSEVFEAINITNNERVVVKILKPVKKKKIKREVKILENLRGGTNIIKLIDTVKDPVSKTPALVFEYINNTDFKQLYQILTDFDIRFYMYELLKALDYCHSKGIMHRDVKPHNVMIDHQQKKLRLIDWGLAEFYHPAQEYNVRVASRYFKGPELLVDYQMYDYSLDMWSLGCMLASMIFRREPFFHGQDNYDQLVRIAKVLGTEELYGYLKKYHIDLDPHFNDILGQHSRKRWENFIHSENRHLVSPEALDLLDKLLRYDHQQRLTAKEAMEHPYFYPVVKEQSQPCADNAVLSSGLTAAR

MAPK13 (human) = MAPK13 (human) (UniProt O15264)
CAMK4 (human) = CAMK4 (human) (UniProt Q16566)
Chain of CAMK4 (human) (Q16566 whole entry, looked up): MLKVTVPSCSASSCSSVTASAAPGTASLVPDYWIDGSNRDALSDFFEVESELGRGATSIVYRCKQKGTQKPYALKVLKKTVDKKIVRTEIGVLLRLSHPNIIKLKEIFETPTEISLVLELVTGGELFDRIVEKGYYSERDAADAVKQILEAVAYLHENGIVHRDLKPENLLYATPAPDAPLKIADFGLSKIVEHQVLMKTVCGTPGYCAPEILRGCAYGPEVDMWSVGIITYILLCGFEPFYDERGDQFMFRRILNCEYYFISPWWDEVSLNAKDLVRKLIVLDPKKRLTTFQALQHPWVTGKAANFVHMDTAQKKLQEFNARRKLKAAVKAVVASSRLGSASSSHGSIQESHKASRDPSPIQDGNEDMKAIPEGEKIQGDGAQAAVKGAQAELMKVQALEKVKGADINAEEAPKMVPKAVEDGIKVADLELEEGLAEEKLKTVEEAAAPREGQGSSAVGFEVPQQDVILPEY

CSNK1A1L (human) = CSNK1A1L (human) (UniProt Q8N752)
Chain of CSNK1A1L (human) (Q8N752 whole entry, looked up): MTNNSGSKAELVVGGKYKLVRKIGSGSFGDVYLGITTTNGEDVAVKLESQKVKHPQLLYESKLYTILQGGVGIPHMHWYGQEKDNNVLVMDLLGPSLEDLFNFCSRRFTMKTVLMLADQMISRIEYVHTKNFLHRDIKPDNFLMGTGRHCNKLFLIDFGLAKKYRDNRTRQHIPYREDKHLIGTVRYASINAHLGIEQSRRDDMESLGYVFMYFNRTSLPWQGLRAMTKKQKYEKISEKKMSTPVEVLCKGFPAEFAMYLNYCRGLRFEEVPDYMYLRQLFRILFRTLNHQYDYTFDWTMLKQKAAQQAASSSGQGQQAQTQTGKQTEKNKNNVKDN

RPS6KA1 KD2 (human) = RPS6KA1 KD2 (human) (UniProt Q15418)
MAP4K4 (human) = MAP4K4 (human) (UniProt O95819)
EIF2AK2 (human) = EIF2AK2 (human) (UniProt P19525)
CAMK1G (human) = CAMK1G (human) (UniProt Q96NX5)
SIK1 (human) = SIK1 (human) (UniProt P57059)
EPHA1 (human) = EPHA1 (human) (UniProt P21709)
SRMS (human) = SRMS (human) (UniProt Q9H3Y6)
CDC42BPB (human) = CDC42BPB (human) (UniProt Q9Y5S2)
ACVR1 (human) = ACVR1 (human) (UniProt Q04771)
BMPR1B (human) = BMPR1B (human) (UniProt O00238)
LTK (human) = LTK (human) (UniProt P29376)
Chain of LTK (human) (P29376 whole entry, looked up): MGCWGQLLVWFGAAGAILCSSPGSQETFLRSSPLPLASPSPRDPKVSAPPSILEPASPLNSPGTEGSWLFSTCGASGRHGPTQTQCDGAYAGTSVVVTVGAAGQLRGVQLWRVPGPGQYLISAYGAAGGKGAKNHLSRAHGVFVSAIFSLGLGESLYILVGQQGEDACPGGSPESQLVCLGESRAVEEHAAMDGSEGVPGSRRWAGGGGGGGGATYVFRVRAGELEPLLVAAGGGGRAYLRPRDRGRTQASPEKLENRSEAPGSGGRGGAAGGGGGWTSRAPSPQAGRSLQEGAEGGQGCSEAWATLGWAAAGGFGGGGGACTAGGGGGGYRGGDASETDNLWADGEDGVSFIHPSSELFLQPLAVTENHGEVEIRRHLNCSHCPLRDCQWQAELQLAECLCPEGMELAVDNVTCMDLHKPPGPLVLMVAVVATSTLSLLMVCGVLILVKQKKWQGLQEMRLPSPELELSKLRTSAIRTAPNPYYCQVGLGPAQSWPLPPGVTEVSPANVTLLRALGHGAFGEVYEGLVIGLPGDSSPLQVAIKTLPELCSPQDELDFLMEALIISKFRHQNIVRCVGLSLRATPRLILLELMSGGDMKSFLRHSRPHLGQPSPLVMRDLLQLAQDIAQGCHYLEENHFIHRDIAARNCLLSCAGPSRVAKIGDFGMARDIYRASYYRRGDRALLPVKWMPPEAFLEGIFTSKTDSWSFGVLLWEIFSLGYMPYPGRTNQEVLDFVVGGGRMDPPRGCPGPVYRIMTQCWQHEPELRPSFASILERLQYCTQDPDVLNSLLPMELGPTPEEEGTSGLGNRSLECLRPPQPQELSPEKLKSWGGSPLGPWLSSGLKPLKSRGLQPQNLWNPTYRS

SRPK3 (human) = SRPK3 (human) (UniProt Q9UPE1)
[2] = molecular target: TYK2 JH1 catalytic (human) (UniProt P29597)
Chain of TYK2 JH1 catalytic (human) (P29597 whole entry, looked up): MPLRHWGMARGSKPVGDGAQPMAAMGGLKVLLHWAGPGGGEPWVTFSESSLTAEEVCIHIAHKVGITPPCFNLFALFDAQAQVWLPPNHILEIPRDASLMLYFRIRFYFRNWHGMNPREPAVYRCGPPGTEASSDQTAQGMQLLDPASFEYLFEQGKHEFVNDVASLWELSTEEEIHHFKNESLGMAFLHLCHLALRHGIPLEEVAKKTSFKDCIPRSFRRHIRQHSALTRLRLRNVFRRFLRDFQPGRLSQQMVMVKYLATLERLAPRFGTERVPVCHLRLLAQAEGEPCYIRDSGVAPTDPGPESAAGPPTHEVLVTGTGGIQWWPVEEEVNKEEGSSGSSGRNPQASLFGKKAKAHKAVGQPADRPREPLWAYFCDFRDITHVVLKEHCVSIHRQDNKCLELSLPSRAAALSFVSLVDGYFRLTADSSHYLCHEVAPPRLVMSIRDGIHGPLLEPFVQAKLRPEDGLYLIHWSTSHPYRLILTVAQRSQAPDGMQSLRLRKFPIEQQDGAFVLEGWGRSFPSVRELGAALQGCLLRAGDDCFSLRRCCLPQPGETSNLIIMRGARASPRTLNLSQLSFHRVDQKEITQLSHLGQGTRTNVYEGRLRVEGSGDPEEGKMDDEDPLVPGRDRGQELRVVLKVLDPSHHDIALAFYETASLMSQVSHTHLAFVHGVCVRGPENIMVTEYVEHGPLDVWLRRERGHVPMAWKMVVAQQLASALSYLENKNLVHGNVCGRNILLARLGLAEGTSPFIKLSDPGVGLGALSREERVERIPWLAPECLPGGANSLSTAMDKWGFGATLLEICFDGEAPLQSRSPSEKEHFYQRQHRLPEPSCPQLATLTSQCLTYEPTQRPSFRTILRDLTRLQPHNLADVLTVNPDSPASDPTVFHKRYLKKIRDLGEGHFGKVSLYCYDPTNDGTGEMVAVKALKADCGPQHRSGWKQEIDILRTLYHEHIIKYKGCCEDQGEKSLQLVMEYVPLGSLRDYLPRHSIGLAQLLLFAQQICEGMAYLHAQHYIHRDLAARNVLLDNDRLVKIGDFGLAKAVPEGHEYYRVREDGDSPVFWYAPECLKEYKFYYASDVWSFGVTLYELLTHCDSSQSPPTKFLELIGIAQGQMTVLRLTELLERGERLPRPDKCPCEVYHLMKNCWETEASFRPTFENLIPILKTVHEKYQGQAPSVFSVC

PAK2 (human) = PAK2 (human) (UniProt Q13177)
TNK2 (human) = TNK2 (human) (UniProt Q07912)

## C=CC(=O)Nc1cccc(Nc2nc(N[C@H]3CC[C@H](N(C)C)CC3)nc3c2ncn3C(C)C)c1
RAF1 (human)
  kinase still bound, per cent of control: 100%
NLK (human)
  kinase still bound, per cent of control: 96%
TNNI3K (human)
  kinase still bound, per cent of control: 62%
TSSK1B (human)
  kinase still bound, per cent of control: 97%
EPHB4 (human)
  kinase still bound, per cent of control: 60%
CHUK (human)
  kinase still bound, per cent of control: 82%
CDC42BPG (human)
  kinase still bound, per cent of control: 84%
PRKD2 (human)
  kinase still bound, per cent of control: 100%
PRKCQ (human)
  kinase still bound, per cent of control: 3.6%
TESK1 (human)
  kinase still bound, per cent of control: 93%
TTK (human)
  kinase still bound, per cent of control: 51%
RPS6KA1 KD1 (human)
  kinase still bound, per cent of control: 9.4%
PRKCD (human)
  kinase still bound, per cent of control: 83%
PRKG2 (human)
  kinase still bound, per cent of control: 96%
TLK1 (human)
  kinase still bound, per cent of control: 100%
CAMKK1 (human)
  kinase still bound, per cent of control: 40%
[1]
  kinase still bound, per cent of control: 42%
TAOK3 (human)
  kinase still bound, per cent of control: 28%
EPHA3 (human)
  kinase still bound, per cent of control: 54%
PRKAA1 (human)
  kinase still bound, per cent of control: 78%
PHKG1 (human)
  kinase still bound, per cent of control: 57%
CSNK2A2 (human)
  kinase still bound, per cent of control: 48%
MAPK13 (human)
  kinase still bound, per cent of control: 94%
CAMK4 (human)
  kinase still bound, per cent of control: 100%
CSNK1A1L (human)
  kinase still bound, per cent of control: 1.5%
RPS6KA1 KD2 (human)
  kinase still bound, per cent of control: 67%
MAP4K4 (human)
  kinase still bound, per cent of control: 53%
EIF2AK2 (human)
  kinase still bound, per cent of control: 78%
CAMK1G (human)
  kinase still bound, per cent of control: 93%
SIK1 (human)
  kinase still bound, per cent of control: 85%
EPHA1 (human)
  kinase still bound, per cent of control: 72%
SRMS (human)
  kinase still bound, per cent of control: 88%
CDC42BPB (human)
  kinase still bound, per cent of control: 76%
ACVR1 (human)
  kinase still bound, per cent of control: 100%
BMPR1B (human)
  kinase still bound, per cent of control: 31%
LTK (human)
  kinase still bound, per cent of control: 88%
SRPK3 (human)
  kinase still bound, per cent of control: 47%
[2]
  kinase still bound, per cent of control: 34%
PAK2 (human)
  kinase still bound, per cent of control: 61%
TNK2 (human)
  kinase still bound, per cent of control: 46%
